In patent EP0117797A1, “Nitroso ureas, process for their preparation and their therapeutic use” (CENTRE NATIONAL DE LA RECHERCHE SCIENTIFIQUE, priority 1983, dated 1984):

How the values were obtained:
[1] = system: cellules de leucémie L 1210; assay: Oncostatic activity against L 1210 leukaemia (i.p.) in mice, survival T/C; type: in vivo, souris F1, (DBA/2XC57 B 1/6); settings: for Dose optimale / T/C max / M.E.D.I. / efficacité (comparison in words): L 1210 i.p.; for T/C max: treated days 1, 5 and 9, suspension in oil, T/C = ∞ when 50 % of the animals are cured, T/C > 125 % = active; for M.E.D.I.: dose plateau of maximum activity corresponding to T/C = ∞; for I = DL50 / D.Opt.: therapeutic index, DL50 divided by optimal dose; for efficacité (comparison in words): 2-chloro-éthylamides compared with the known -NH2 amides (N° 10, 14 et 16)
From the text: L'activité oncostatique de certains composés de l'invention par comparaison à d'autres nitrosourées connues a été déterminée en suivant le protocole expérimental suivant : • Des souris F1, (DBA/2XC57 B 1/6) sont inoculées avec 10^5 cellules de leucémie L 1210 par voie intrapéritonéale au jour 0 et divisées en 5 groupes. Le premier est le groupe de contrôle et les quatre autres sont traités avec les produits à tester à différentes concentrations, aux jours 1,5 et 9. Les composés sont injectés en suspension dans l'huile. La mortalité des animaux est observée et l'autopsie indique si elle est due à la leucémie ou à l'action toxique de la drogue. Les résultats, pour chaque dose de produit, sont exprimés en T/C (%) (T représente la médiane de survie du groupe traité et C la médiane de survie du groupe témoin T/C = ∞ quand 50 % des animaux sont guéris. T/C > 125 % signifie qu'une drogue est active.
Ces essais ont été effectués à l'aide de composés de formule [formula] pour différents amino-acides et différentes significations du substituant X (substituant côté C terminal).
Les significations de X sont les suivantes : • 1) Composés de l'invention : X = -NH-CH2-CH2Cl, -N(CH2-CH2-Cl)2 et -NH-C6H4-N(CH2-CH2-Cl)2 • 2) Composés en dehors de l'invention : X = -NH2 et -NH-C^H3.
Le tableau précédent rapporte les valeurs DL50, T/C, M.E.D.I. (Maximum efficace dose internal = plateau d'activité maximum correspondant à T/C = ∞), dose optimale et Indice thérapeutique.

[2] = Acute toxicity (DL50); settings: mouse, in vivo

O=NN(CCCl)C(=O)NCCC(=O)NCCCl [compound 2]
Dose optimale [1]: 35 mg/kg | T/C max [1]: ∞ | M.E.D.I. [1]: 20 to 50 mg/kg | I = DL50 / D.Opt. [1]: 2,86 | DL50 [2]: 100 mg/kg

C[C@H](NC(=O)N(CCCl)N=O)C(=O)NCCCl [compound 1]
Dose optimale [1]: 20 mg/kg | T/C max [1]: ∞ | M.E.D.I. [1]: 10 to 30 mg/kg | I = DL50 / D.Opt. [1]: 1,75 | LD50 [2]: 35 mg/kg

O=NN(CCCl)C(=O)NCCCC(=O)NCCCl [compound 7]
Dose optimale [1]: 35 mg/kg | T/C max [1]: ∞ | M.E.D.I. [1]: 20 to 50 mg/kg | I = DL50 / D.Opt. [1]: 3,57 | DL50 [2]: 125 mg/kg

CC(C)C[C@H](NC(=O)N(CCCl)N=O)C(=O)NCCCl [compound 9]
efficacité (comparison in words) [1]: beaucoup plus efficaces | Dose optimale [1]: 35 mg/kg | T/C max [1]: ∞ | M.E.D.I. [1]: 15 to 50 mg/kg | I = DL50 / D.Opt. [1]: 1,80 | LD50 [2]: 64 mg/kg

O=NN(CCCl)C(=O)NCCCC[C@H](NC(=O)N(CCCl)N=O)C(=O)NCCCl [compound 12]
Dose optimale [1]: 30 mg/kg | T/C max [1]: ∞ | M.E.D.I. [1]: 20 to 40 mg/kg | I = DL50 / D.Opt. [1]: 4,50 | LD50 [2]: 135 mg/kg

CSCC[C@H](NC(=O)N(CCCl)N=O)C(=O)NCCCl [compound 13]
efficacité (comparison in words) [1]: beaucoup plus efficaces | Dose optimale [1]: 20 mg/kg | T/C max [1]: ∞ | M.E.D.I. [1]: 10 to 30 mg/kg | I = DL50 / D.Opt. [1]: 1,60 | LD50 [2]: 32 mg/kg

O=NN(CCCl)C(=O)N[C@@H](CC(=O)NCCCl)C(=O)NCCCl [compound 3]
Dose optimale [1]: 37 mg/kg | T/C max [1]: ∞ | M.E.D.I. [1]: 25 to 50 mg/kg | I = DL50 / D.Opt. [1]: 3,50 | LD50 [2]: 130 mg/kg
